Test results published in patent US12649750B2, “Macrocyclic compounds, compositions, and methods of using thereof” (Sionna Therapeutics Inc., priority 2022, dated 2026).

Biological target: T1, NBD1 (Homo sapiens, UniProt P13569)
T1 construct: Purified recombinant NBD1 was produced using previously described methods; made in house
Experiment: Aggregation analysis using differential static light scattering (DSLS), thermal stability of NBD1 (ΔTagg)
Type: binding
Conditions: ΔTagg versus DMSO control, NBD1 0.2 mg/ml
Outline: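 Differential static light scattering read from 25° C. to 70° C. every 0.5° C., ramp 1° C./min, on recombinant NBD1 (0.2 mg/ml; Tris/NaCl/MgCl2 buffer with 2 mM ATP, 2 mM DTT, pH 7.6, 1% glycerol) plus compound. Reported ΔTagg subtracts averaged DMSO Tagg from inflection-point Tagg; categories A ≤5, B >5-10, C >10-25° C.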

T1 sequence (P13569 423-646 limits assumed): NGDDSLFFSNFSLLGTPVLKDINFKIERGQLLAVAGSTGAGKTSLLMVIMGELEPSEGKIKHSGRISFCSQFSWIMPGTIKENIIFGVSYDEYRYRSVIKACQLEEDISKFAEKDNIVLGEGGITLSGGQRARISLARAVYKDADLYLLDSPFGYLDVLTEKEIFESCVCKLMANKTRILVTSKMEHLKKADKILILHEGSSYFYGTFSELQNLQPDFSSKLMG

| Compound | DSLS 3D (100 μM ΔT) |
| --- | --- |
| C[C@@H](Cc1cccc([C@@]2(C)CCCC(C)(C)CS(=O)(=O)CCc3c(c(F)c(F)c4[nH]ccc34)Cc3ccnc(c3)-c3nc2nn3C)c1)C(=O)O [Compound 304, (2S)-3-[3-[(6R)-21,22-Difluoro-3,6,10,10-tetramethyl-12,12-dioxo-12λ6-thia-3,4,19,28,30-pentazapentacyclo[23.3.1.12,5.015,23.016,20]triaconta-1(29),2(30),4,15,17,20,22,25,27-nonaen-6-yl]phenyl]-2-methyl-propanoic Acid] | B (a value above 5 °C and less than or equal to 10 °C is marked “B”) |
| C[C@H](Cc1cccc([C@@]2(C)CCCC(C)(C)CS(=O)(=O)CCc3c(c(F)c(F)c4[nH]ccc34)Cc3ccnc(c3)-c3nc2nn3C)c1)C(=O)O [Compound 305, (2R)-3-[3-[(6R)-21,22-Difluoro-3,6,10,10-tetramethyl-12,12-dioxo-12λ6-thia-3,4,19,28,30-pentazapentacyclo[23.3.1.12,5.015,23.016,20]triaconta-1(29),2(30),4,15,17,20,22,25,27-nonaen-6-yl]phenyl]-2-methyl-propanoic acid] | B (a value above 5 °C and less than or equal to 10 °C is marked “B”) |
| Cn1nc2nc1-c1cc(ccn1)Cc1c(F)c(F)c3[nH]ccc3c1CCS(=O)(=O)CC(C)(C)CCC[C@]2(C)c1cccc(CC2(C(=O)O)CC2)c1 [Compound 306, 1-[[3-[(6R)-21,22-Difluoro-3,6,10,10-tetramethyl-12,12-dioxo-12λ6-thia-3,4,19,28,30-pentazapentacyclo[23.3.1.12,5.015,23.016,20]triaconta-1(29),2(30),4,15,17,20,22,25,27-nonaen-6-yl]phenyl]methyl]cyclopropanecarboxylic Acid] | A (an ΔTagg value less than or equal to 5 °C is marked “A”) |
| Cn1nc2nc1-c1cc(ccn1)Cc1c(F)c(F)c3[nH]ccc3c1CCS(=O)(=O)CC(C)(C)CCC[C@]2(C)c1cccc(CC(C)(C)C(=O)O)c1 [Compound 307, 3-[3-[(6R)-21,22-Difluoro-3,6,10,10-tetramethyl-12,12-dioxo-12λ6-thia-3,4,19,28,30-pentazapentacyclo[23.3.1.12,5.015,23.016,20]triaconta-1(29),2(30),4,15,17,20,22,25,27-nonaen-6-yl]phenyl]-2,2-dimethyl-propanoic Acid] | A (an ΔTagg value less than or equal to 5 °C is marked “A”) |
| Cn1nc2nc1-c1cc(ccn1)Sc1c(F)c(F)c3[nH]ccc3c1CCS(=O)(=O)CC(C)(C)CCC[C@]2(C)c1cccc(CC2(C(=O)O)CC2)c1 [Compound 308, 1-[[3-[(6R)-21,22-difluoro-3,6,10,10-tetramethyl-12,12-dioxo-12λ6,24-dithia-3,4,19,28,30-pentazapentacyclo[23.3.1.12,5.015,23.016,20]triaconta-1(29),2(30),4,15,17,20,22,25,27-nonaen-6-yl]phenyl]methyl]cyclopropanecarboxylic acid] | B (a value above 5 °C and less than or equal to 10 °C is marked “B”) |
| Cn1nc2nc1-c1cc(ccn1)S(=O)(=O)c1c(F)c(F)c3[nH]ccc3c1CCS(=O)(=O)CC(C)(C)CCC[C@]2(C)c1cccc(CC2(C(=O)O)CC2)c1 [Compound 310, 1-[[3-[(6R)-21,22-difluoro-3,6,10,10-tetramethyl-12,12,24,24-tetraoxo-12λ6,24λ6-dithia-3,4,19,28,30-pentazapentacyclo[23.3.1.12,5.015,23.016,20]triaconta-1(29),2(30),4,15,17,20,22,25,27-nonaen-6-yl]phenyl]methyl]cyclopropanecarboxylic acid] | A (an ΔTagg value less than or equal to 5 °C is marked “A”) |
| Cn1nc2nc1-c1cc(ccn1)Cc1c(F)cc3[nH]ccc3c1CCS(=O)(=O)CC(C)(C)CCC[C@]2(C)c1cccc(C[C@@H](O)CO)c1 [Compound 311, (2R)-3-[3-[(6R)-22-Fluoro-3,6,10,10-tetramethyl-12,12-dioxo-12λ6-thia-3,4,19,28,30-pentazapentacyclo[23.3.1.12,5.015,23.016,20]triaconta-1(29),2(30),4,15,17,20,22,25,27-nonaen-6-yl]phenyl]propane-1,2-diol] | A (an ΔTagg value less than or equal to 5 °C is marked “A”) |
| Cn1nc2nc1-c1cc(ccn1)Cc1c(F)cc3[nH]ccc3c1CCS(=O)(=O)CC(C)(C)CCC[C@]2(C)c1cccc(C[C@H](O)CO)c1 [Compound 312, (2S)-3-[3-[(6R)-22-Fluoro-3,6,10,10-tetramethyl-12,12-dioxo-12λ6-thia-3,4,19,28,30-pentazapentacyclo[23.3.1.12,5.015,23.016,20]triaconta-1(29),2(30),4,15,17,20,22,25,27-nonaen-6-yl]phenyl]propane-1,2-diol] | A (an ΔTagg value less than or equal to 5 °C is marked “A”) |
| Cn1nc2nc1-c1cc(ccn1)Cc1c(F)cc3[nH]ccc3c1CCS(=O)(=O)CC(C)(C)CCC[C@]2(C)c1cccc(CC2(C(=O)O)CC2)c1 [Compound 313, 1-[[3-[(6R)-22-Fluoro-3,6,10,10-tetramethyl-12,12-dioxo-12λ6-thia-3,4,19,28,30-pentazapentacyclo[23.3.1.12,5.015,23.016,20]triaconta-1(29),2(30),4,15,17,20,22,25,27-nonaen-6-yl]phenyl]methyl]cyclopropanecarboxylic acid] | B (a value above 5 °C and less than or equal to 10 °C is marked “B”) |
| C[C@@H](Cc1cccc(C2(C)CCCC(C)(C)CS(=O)(=O)CCc3c(c(F)cc4[nH]ccc34)S(=O)(=O)c3ccnc(c3)-c3nc2nn3C)n1)C(=O)O (stereo partly drawn) [Compound 315E, (2S)-3-[6-(22-fluoro-3,6,10,10-tetramethyl-12,12,24,24-tetraoxo-12λ6,24λ6-dithia-3,4,19,28,30-pentazapentacyclo[23.3.1.12,5.015,23.016,20]triaconta-1(29),2(30),4,15,17,20,22,25,27-nonaen-6-yl)-2-pyridyl]-2-methyl-propanoic Acid] | A (an ΔTagg value less than or equal to 5 °C is marked “A”) |
| C[C@H](Cc1cccc([C@@]2(C)CCCC(C)(C)CS(=O)(=O)CCc3c(c(F)c(F)c4[nH]ccc34)S(=O)(=O)c3ccc(F)c(c3)-c3nc2nn3C)c1)C(=O)O [Compound 320, (2R)-2-Methyl-3-[3-[(6R)-21,22,28-trifluoro-3,6,10,10-tetramethyl-12,12,24,24-tetraoxo-12λ6,24λ6-dithia-3,4,19,30-tetrazapentacyclo[23.3.1.12,5.015,23.016,20]triaconta-1(29),2(30),4,15,17,20,22,25,27-nonaen-6-yl]phenyl]propanoic acid] | B (a value above 5 °C and less than or equal to 10 °C is marked “B”) |
| Cc1c[nH]c2c(F)c(F)c3c(c12)CCS(=O)(=O)CC(C)(C)CCC[C@](C)(c1cccc(C[C@@H](C)C(=O)O)c1)c1nc(n(C)n1)-c1cc(ccc1F)O3 [Compound 321, (2R)-2-Methyl-3-[3-[(6R)-21,22,28-trifluoro-3,6,10,10,17-pentamethyl-12,12-dioxo-24-oxa-12λ6-thia-3,4,19,30-tetrazapentacyclo[23.3.1.12,5.015,23.016,20]triaconta-1(29),2(30),4,15,17,20,22,25,27-nonaen-6-yl]phenyl]propanoic Acid] | A (an ΔTagg value less than or equal to 5 °C is marked “A”) |
| C[C@H](Cc1cccc([C@@]2(C)CCCC(C)(C)CS(=O)(=O)CCc3c(c(F)c(F)c4[nH]cc(C#N)c34)Oc3ccc(F)c(c3)-c3nc2nn3C)c1)C(=O)O [Compound 322, (2R)-3-[3-[(6R)-17-Cyano-21,22,28-trifluoro-3,6,10,10-tetramethyl-12,12-dioxo-24-oxa-12λ6-thia-3,4,19,30-tetrazapentacyclo[23.3.1.12,5.015,23.016,20]triaconta-1(29),2(30),4,15,17,20,22,25,27-nonaen-6-yl]phenyl]-2-methyl-propanoic Acid] | B (a value above 5 °C and less than or equal to 10 °C is marked “B”) |
| Cn1nc2nc1-c1cc(ccn1)Oc1c(F)c(F)c3[nH]ccc3c1CCS(=O)(=O)CC(C)(C)CCC[C@]2(C)c1cccc(CC(C)(C)C(=O)O)c1 [Compound 323, 3-[3-[(6R)-21,22-Difluoro-3,6,10,10-tetramethyl-12,12-dioxo-24-oxa-12λ6-thia-3,4,19,28,30-pentazapentacyclo[23.3.1.12,5.015,23.016,20]triaconta-1(29),2(30),4,15,17,20,22,25,27-nonaen-6-yl]phenyl]-2,2-dimethyl-propanoic Acid] | B (a value above 5 °C and less than or equal to 10 °C is marked “B”) |
| Cn1nc2nc1-c1cc(ccc1F)Oc1c(F)c(F)c3[nH]ccc3c1CCS(=O)(=O)CC(C)(C)CCC[C@]2(C)c1cccc(CC(C)(C)C(=O)O)c1 [Compound 324, 2,2-Dimethyl-3-[3-[(6R)-21,22,28-trifluoro-3,6,10,10-tetramethyl-12,12-dioxo-24-oxa-12λ6-thia-3,4,19,30-tetrazapentacyclo[23.3.1.12,5.015,23.016,20]triaconta-1(29),2(30),4,15,17,20,22,25,27-nonaen-6-yl]phenyl]propanoic Acid] | B (a value above 5 °C and less than or equal to 10 °C is marked “B”) |
| Cn1nc2nc1-c1cc(ccc1F)Sc1c(F)c(F)c3[nH]cc(CC(=O)O)c3c1CCS(=O)(=O)CC(C)(C)CCC[C@]2(C)c1ccccc1 [Compound 325, 2-[(6R)-21,22,28-Trifluoro-3,6,10,10-tetramethyl-12,12-dioxo-6-phenyl-12λ6,24-dithia-3,4,19,30-tetrazapentacyclo[23.3.1.12,5.015,23.016,20]triaconta-1(29),2(30),4,15,17,20,22,25,27-nonaen-17-yl]acetic Acid] | B (a value above 5 °C and less than or equal to 10 °C is marked “B”) |
| C[C@H](Cc1cccc([C@@]2(C)CCCC(C)(C)CS(=O)(=O)CCc3c(c(F)c(F)c4[nH]cc(Cl)c34)Oc3ccc(F)c(c3)-c3nc2nn3C)c1)C(=O)O [Compound 327] | A (an ΔTagg value less than or equal to 5 °C is marked “A”) |
